ChEMBL document CHEMBL4765403, “Augmentation of the antitumor effects of PARP inhibitors in triple-negative breast cancer via degradation by hydrophobic tagging modulation” (Eur J Med Chem, 2020)
Activity calls are given as the source filed them. The rule behind the calls is not given here.

Experiments:
[1] = target: Poly [ADP-ribose] polymerase 1 (Homo sapiens) (UniProt P09874); assay: Induction of PARP1 degradation in triple-negative human MDA-MB-231 cells assessed as fold change in PARP1 protein expression at 0.1 uM incubated for 48 hrs by Western blot analysis relative to control; assay type: cell-based
Poly [ADP-ribose] polymerase 1 (Homo sapiens), sequence (P09874 whole entry): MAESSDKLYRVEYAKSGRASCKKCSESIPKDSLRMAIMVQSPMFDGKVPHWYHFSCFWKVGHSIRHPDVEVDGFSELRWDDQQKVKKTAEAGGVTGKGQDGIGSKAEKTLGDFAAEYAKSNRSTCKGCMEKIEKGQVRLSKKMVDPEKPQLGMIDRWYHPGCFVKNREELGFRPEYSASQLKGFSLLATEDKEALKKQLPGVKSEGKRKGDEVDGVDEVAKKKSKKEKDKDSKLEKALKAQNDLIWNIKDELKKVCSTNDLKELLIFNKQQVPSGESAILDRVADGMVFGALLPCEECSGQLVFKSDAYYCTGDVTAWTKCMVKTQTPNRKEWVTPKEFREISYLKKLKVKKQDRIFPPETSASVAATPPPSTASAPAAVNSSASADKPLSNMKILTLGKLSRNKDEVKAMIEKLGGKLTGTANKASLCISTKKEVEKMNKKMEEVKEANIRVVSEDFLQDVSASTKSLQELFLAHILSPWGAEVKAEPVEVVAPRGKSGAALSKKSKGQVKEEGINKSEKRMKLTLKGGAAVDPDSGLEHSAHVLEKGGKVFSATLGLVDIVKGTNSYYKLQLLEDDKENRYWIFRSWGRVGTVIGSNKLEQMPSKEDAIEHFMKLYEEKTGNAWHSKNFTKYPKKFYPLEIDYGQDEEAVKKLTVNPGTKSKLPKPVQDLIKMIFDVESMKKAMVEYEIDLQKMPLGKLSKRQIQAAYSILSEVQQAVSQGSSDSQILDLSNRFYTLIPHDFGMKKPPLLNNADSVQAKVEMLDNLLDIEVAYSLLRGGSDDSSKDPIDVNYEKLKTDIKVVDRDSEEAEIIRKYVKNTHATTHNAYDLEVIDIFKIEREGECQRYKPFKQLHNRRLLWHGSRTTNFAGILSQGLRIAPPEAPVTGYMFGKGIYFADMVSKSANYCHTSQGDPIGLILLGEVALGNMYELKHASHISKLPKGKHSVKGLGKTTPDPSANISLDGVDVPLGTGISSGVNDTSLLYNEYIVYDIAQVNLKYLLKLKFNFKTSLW

[2] = target: Poly [ADP-ribose] polymerase 1 (Homo sapiens) (UniProt P09874); assay: Induction of PARP1 degradation in triple-negative human MDA-MB-231 cells assessed as fold change in PARP1 protein expression at 10 uM incubated for 48 hrs by Western blot analysis relative to control; assay type: cell-based
[3] = target: Poly [ADP-ribose] polymerase 1 (Homo sapiens) (UniProt P09874); assay: Induction of PARP1 degradation in human MDA-MB-231 cells at 2.5 uM incubated for 48 hrs by Western blot analysis relative to control; assay type: cell-based
[4] = target: Poly [ADP-ribose] polymerase 1 (Homo sapiens) (UniProt P09874); assay: Induction of PARP1 degradation in triple-negative human MDA-MB-231 cells assessed as fold change in PARP1 protein expression at 0.01 uM incubated for 48 hrs by Western blot analysis relative to control; assay type: cell-based
[5] = target: Poly [ADP-ribose] polymerase 1 (Homo sapiens) (UniProt P09874); assay: Induction of PARP1 degradation in human HCC1937 cells harboring BRCA mutation assessed as fold change in PARP1 protein expression at 5 uM incubated for 48 hrs by Western blot analysis relative to control; assay type: cell-based
[6] = target: Poly [ADP-ribose] polymerase 1 (Homo sapiens) (UniProt P09874); assay: Induction of PARP1 degradation in human MDA-MB-231 cells at 5 uM pretreated for 2 hrs with proteasome inhibitor, bortezomib for 2 hrs followed by incubation with compound for 48 hrs by immunoblotting analysis; assay type: cell-based
[7] = target: Poly [ADP-ribose] polymerase 1 (Homo sapiens) (UniProt P09874); assay: Induction of PARP1 degradation in human MDA-MB-231 cells at 5 uM pretreated for 2 hrs with proteasome inhibitor, carfilzomib for 2 hrs followed by incubation with compound for 48 hrs by immunoblotting analysis; assay type: cell-based
[8] = target: Poly [ADP-ribose] polymerase 1 (Homo sapiens) (UniProt P09874); assay: Induction of PARP1 degradation in human MDA-MB-231 cells at 5 uM incubated for 48 hrs in presence 5 to 10 uM PARP1 inhibitor olaparib by Western blot analysis; assay type: cell-based
MDA-MB-231 [9] = assay: Induction of apoptosis in human MDA-MB-231 cells assessed as increase in Bax protein expression at 5 uM incubated for 24 to 48 hrs by Western blot analysis; assay type: functional, cell-based; conditions: time 24-48 hrs
MDA-MB-468 [10] = assay: Induction of apoptosis in human MDA-MB-468 cells assessed as decrease in Bcl2 protein expression at 5 uM incubated for 48 hrs by Western blot analysis; assay type: functional, cell-based
MDA-MB-231 [11] = assay: Induction of apoptosis in human MDA-MB-231 cells assessed as upregulation in Bax gene expression at 5 to 10 uM incubated for 24 to 48 hrs by RT-PCR analysis; assay type: functional, cell-based; conditions: dose 5-10 µM, time 24-48 hrs
MDA-MB-231 [12] = assay: Induction of apoptosis in human MDA-MB-231 cells assessed as upregulation in p21 gene expression at 5 to 10 uM incubated for 24 to 48 hrs by RT-PCR analysis; assay type: functional, cell-based; conditions: dose 5-10 µM, time 24-48 hrs
MDA-MB-231 [13] = assay: Induction of apoptosis in human MDA-MB-231 cells assessed as upregulation in PUMA gene expression at 5 to 10 uM incubated for 24 to 48 hrs by RT-PCR analysis; assay type: functional, cell-based; conditions: dose 5-10 µM, time 24-48 hrs
MDA-MB-231 [14] = assay: Induction of apoptosis in human MDA-MB-231 cells assessed as downregulation in survivin gene expression at 5 to 10 uM incubated for 24 to 48 hrs by RT-PCR analysis; assay type: functional, cell-based; conditions: dose 5-10 µM, time 24-48 hrs
MDA-MB-468 [15] = assay: Induction of autophagy in human MDA-MB-468 cells assessed as upregulation in LC3B protein expression at 5 uM measured after 48 hrs by Western blot analysis; assay type: functional, cell-based
MDA-MB-231 [16] = assay: Induction of autophagy in human MDA-MB-231 cells assessed as upregulation in LC3B protein expression at 5 uM measured after 48 to 72 hrs by Western blot analysis; assay type: functional, cell-based; conditions: time 48-72 hrs
MDA-MB-231 [17] = assay: Induction of endoplasmic reticulum stress in human MDA-MB-231 cells assessed as upregulation in XBP-1s gene expression at 5 to 10 uM incubated for 24 to 48 hrs by RT-PCR analysis; assay type: functional, cell-based; conditions: dose 5-10 µM, time 24-48 hrs
MDA-MB-231 [18] = assay: Induction of endoplasmic reticulum stress in human MDA-MB-231 cells assessed as upregulation in ATF4 gene expression at 5 to 10 uM incubated for 24 to 48 hrs by RT-PCR analysis; assay type: functional, cell-based; conditions: dose 5-10 µM, time 24-48 hrs
[19] = target: Poly [ADP-ribose] polymerase 1 (Homo sapiens) (UniProt P09874); assay: Induction of PARP1 degradation in human MDA-MB-231 cells assessed as fold change in PARP1 protein expression at 5 uM incubated for 48 hrs in presence of pan-caspase inhibitor, Z-VAD-FMK by Western blot analysis; assay type: cell-based
[20] = target: Poly [ADP-ribose] polymerase 1 (Homo sapiens) (UniProt P09874); assay: Induction of PARP1 degradation in triple-negative human MDA-MB-231 cells assessed as fold change in PARP1 protein expression at 1 uM incubated for 48 hrs by Western blot analysis relative to control; assay type: cell-based
[21] = target: Poly [ADP-ribose] polymerase 1 (Homo sapiens) (UniProt P09874); assay: Induction of PARP1 degradation in triple-negative human MDA-MB-231 cells assessed as fold change in PARP1 protein expression at 0.1 uM incubated for 24 hrs by Western blot analysis relative to control; assay type: cell-based
[22] = target: Poly [ADP-ribose] polymerase 1 (Homo sapiens) (UniProt P09874); assay: Induction of PARP1 degradation in triple-negative human MDA-MB-231 cells assessed as fold change in PARP1 protein expression at 0.5 uM incubated for 24 hrs by Western blot analysis relative to control; assay type: cell-based
[23] = target: Poly [ADP-ribose] polymerase 1 (Homo sapiens) (UniProt P09874); assay: Induction of PARP1 degradation in triple-negative human MDA-MB-231 cells assessed as fold change in PARP1 protein expression at 1 uM incubated for 24 hrs by Western blot analysis relative to control; assay type: cell-based
[24] = target: Poly [ADP-ribose] polymerase 1 (Homo sapiens) (UniProt P09874); assay: Induction of PARP1 degradation in triple-negative human MDA-MB-231 cells assessed as fold change in PARP1 protein expression at 5 uM incubated for 24 hrs by Western blot analysis relative to control; assay type: cell-based
[25] = target: Poly [ADP-ribose] polymerase 1 (Homo sapiens) (UniProt P09874); assay: Induction of PARP1 degradation in human HCC1937 cells harboring BRCA mutation assessed as fold change in PARP1 protein expression at 5 uM incubated for 24 hrs by Western blot analysis relative to control; assay type: cell-based
[26] = target: Poly [ADP-ribose] polymerase 1 (Homo sapiens) (UniProt P09874); assay: Induction of PARP1 degradation in human MDA-MB-231 cells at 5 uM incubated for 48 hrs in presence of proteasome inhibitor, carfilzomib by immunoblotting analysis; assay type: cell-based
MDA-MB-468 [27] = assay: Cytotoxicity against human MDA-MB-468 cells assessed as reduction in cell viability measured after 96 hrs by CCK8 assay; assay type: functional, cell-based; conditions: MDA-MB-468, 96 h
MDA-MB-231 [28] = assay: Induction of apoptosis in human MDA-MB-231 cells assessed as apoptotic body formation at 5 uM incubated for 24 to 48 hrs by transmission electron microscopy; assay type: functional, cell-based; conditions: time 24-48 hrs
[29] = target: Poly [ADP-ribose] polymerase 1 (Homo sapiens) (UniProt P09874); assay: Induction of PARP1 degradation in human MDA-MB-468 cells assessed as fold change in PARP1 protein expression at 5 uM pretreated with caspase I inhibitor, Ac-YVAD-cmk for 2 hrs followed by incubation with compound for 48 hrs by Western blot analysis relative to control; assay type: cell-based
[30] = target: Poly [ADP-ribose] polymerase 1 (Homo sapiens) (UniProt P09874); assay: Induction of PARP1 degradation in human MDA-MB-231 cells assessed as fold change in PARP1 protein expression at 5 uM pretreated for 2 hrs with pan-caspase inhibitor, Z-VAD-FMK followed by incubation with compound for 48 hrs by Western blot analysis relative to control; assay type: cell-based
[31] = target: Poly [ADP-ribose] polymerase 1 (Homo sapiens) (UniProt P09874); assay: Induction of PARP1 degradation in human MDA-MB-468 cells assessed as fold change in PARP1 protein expression at 5 uM pretreated for 2 hrs with pan-caspase inhibitor, Z-VAD-FMK followed by incubation with compound for 48 hrs by Western blot analysis relative to control; assay type: cell-based

fold change (FC) [1]: 0.6
fold change (FC) [2]: 0.1
Activity [3]: 60%
fold change (FC) [4]: 0.7
fold change (FC) [5]: 0
Activity [6]: inactive
Activity [7]: inactive
Activity [8]: inactive
fold change (FC) [19]: 0.3
fold change (FC) [20]: 0.7
fold change (FC) [21]: 0.9
fold change (FC) [22]: 0.8
fold change (FC) [23]: 0.8
fold change (FC) [24]: 0.8
fold change (FC) [25]: 0.3
Activity [26]: inactive
fold change (FC) [29]: 0.2
fold change (FC) [30]: 0.3
fold change (FC) [31]: 0.4
Structure (SMILES): O=C(CC1c2ccccc2-c2ccccc21)N1CCN(C(=O)c2cc(Cc3n[nH]c(=O)c4ccccc34)ccc2F)CC1
Activity (MDA-MB-231 [9]): Active
Activity (MDA-MB-468 [10]): Active
Activity (MDA-MB-231 [11]): Active
Activity (MDA-MB-231 [12]): Active
Activity (MDA-MB-231 [13]): Active
Activity (MDA-MB-231 [14]): Active
Activity (MDA-MB-468 [15]): Active
Activity (MDA-MB-231 [16]): Active
Activity (MDA-MB-231 [17]): Active
Activity (MDA-MB-231 [18]): Active
IC50 (MDA-MB-468 [27]): 5.72 µM
Activity (MDA-MB-231 [28]): Active
